≈ marks a conversion by molar mass, not a printed value.
System: T3565 cultured glioma stem cell
Assay: MTS assay of valproic acid on glioma stem cell viability
Format: cell-based
Conditions: T3565 cells, varying concentrations
From the text: In vitro testing of valproic acid on glioma stem cell and non-stem cells.

CCCC(CCC)C(=O)O [valproic acid]
IC50: 600 µg/mL (≈ 4.16 mM)

— patent US20190290769A1, “Hydrogel Compositions” (The Trustees of the University of Pennsylvania, priority 2018, published 2019)
